# Assay results as given in patent publication US20220154153A1, “NEW INHIBITORS OF LRRK2/PP1 INTERACTION” (Université de Paris, priority 2019, published 2022).
# “Also recorded” adds a separate entry of the source.
# Legend:
# PBMC from healthy donors = experiment: Internalization of FITC-labelled peptides in PBMC from healthy donors (FACS); type: cell-based, human; settings: 4 h, 37° C.; for FITC labelled cells detected (FACS): PBMC of healthy human, 50 μM FITC labelled peptide
# Experimental: (§1) Isolation and Culture of Primary Cells
# (§2) Fresh blood from healthy donors (HD) was obtained from Etablissement Francais du Sang. Chronic lymphocytic leukemia (CLL) patient samples were obtained from the Department of Hematology. Peripheral blood mononuclear cells (PBMC) from HD and CLL patients were prepared by Ficoll gradient centrifugation. Cells were maintained in RPMI 1640 supplemented with 10% of FCS, 1% non-essential amino acids, 1% Hepes, 1% sodium pyruvate and 1% glutamine. All the experimental protocols as well as the human blood samples isolation were approved by the Ethical Committee of the Hospital in accordance with the National Guide of the Ministry of Health.
# (§3) In addition to cell lines, the internalization of the new peptides according to the invention was further tested in peripheral blood mononuclear cells (PBMC) from healthy donors and chronic lymphocytic leukemia (CLL) patients. PBMC from both were incubated with 50 μM of both peptides for 4 h at 37° C.
# MDA-MB231 cells [1] = experiment: Detection of apoptosis by Annexin-V-FITC staining in cancer cells; type: cell-based, human; settings: 25 μM peptide, 24 h of treatment
# Experimental: Detection of Apoptosis by Annexin-V-FITC Staining
# Apoptosis was determined using Annexin-V FITC (eBiosciences) as described by the manufacturer. Briefly, cells were washed in 1× binding buffer, centrifuged and resuspended in 100 μl of 1× binding buffer containing Annexin-V FITC and propidium iodide. After incubation for 15 min, cells were analyzed by flow cytometry. Data acquired by FACS Canto were analyzed with Diva 60 software. Each condition was analyzed in triplicate. The effect of peptide treatment was compared to untreated control cells.
# LRRK2/PP1 interaction = experiment: In vitro competition assay of LRRK2/PP1 interaction (LRRK2 immunoprecipitates from MDA-MB231 lysates, anti-PP1 Western blot); type: binding, human; settings: 1 mM peptide, 30 min, room temperature; compared with non-competed immunoprecipitates
# Experimental: In Vitro Protein/Protein Interaction Competition
# The PP1/LRRK2 interaction was competed using the peptides of the invention. Lysates from MDA-MB231 cells were immunoprecipitated with anti-LRRK2 antibody (overnight, 4° C.) and protein A/G Sepharose was added for 1 h at 4° C. The PP1/LRRK2 interaction was competed with 1 mM of the peptide for 30 min at room temperature. After several washing steps, immunoprecipitates were transferred to nitrocellulose and blotted with anti PP1 antibody (Santa Cruz Biotechnology). As internal control, the blot was also blotted with anti-LRRK2 antibody (Invitrogene).
# Immunoprecipitation and Western Blotting
# Cells (5×10^6) were lysed for 20 min at 4° C. in lysis buffer (50 mM Tris pH8, 1% NP40, 137 mM NaCl, 1 mM MgCl2, 1 mM CaCl2), 10% glycerol and protease inhibitor mixture). Lysates (500 μg) were immunoprecipitated with the appropriated antibody overnight at 4° C. and protein A/G sepharose was added for 1 h at 4° C. After washing with 1×TBST (20 mM Tris HCl pH7.5, 150 mM NaCl, 0.05% Tween 20) immunoprecipitates were separated by SDS-PAGE, transferred to nitrocellulose, blocked (5% non-fat dry milk in TBST) and incubated with the primary antibody (Santa Cruz Biotehnology). The membrane was washed and incubated with PO-conjugates secondary antibody (Dako). Protein detection was performed using the ECL system.
# PBMC from CLL patients = experiment: Internalization of FITC-labelled peptides in PBMC from chronic lymphocytic leukemia (CLL) patients (FACS); type: cell-based, human; settings: 4 h, 37° C.; for FITC labelled cells detected (FACS): PBMC of CLL, 50 μM FITC labelled peptide
# Experimental: as §1, §2, §3
# MDA-MB231 cells [2] = experiment: Internalization of FITC-labelled peptides in MDA-MB231 cell line (FACS); type: cell-based, human; settings: different concentrations, 4 h, compared to peptide 13
# Experimental: Quantification of Cellular Internalization
# Human cell line MDA-MB231 was seeded in 24 well plate (1×10^5 cells/well) and treated with different concentrations of FITC-labelled peptides for different periods of time. After treatment, cells were harvested and washed twice with PBS to remove the extracellular unbound peptide and resuspended in 200 μl of PBS. FITC fluorescence intensity of internalized peptides was measured by flow cytometry. Untreated cells were used as control.
Sequence,FITC labelled cells detected (FACS) (PBMC from healthy donors),"Fluorescence intensity of internalization compared with peptide 13 (PBMC from healthy donors; healthy donors PBMC, 50 μM)",Apoptosis induction (Annexin-V) (MDA-MB231 cells [1]),PP1 detected in LRRK2 immunoprecipitates after competition with peptide (Western blot) (LRRK2/PP1 interaction),"Fluorescence intensity of internalization compared with peptide 13 (PBMC from CLL patients; CLL patients PBMC, 50 μM)",FITC labelled cells detected (FACS) (PBMC from CLL patients),Fluorescence intensity of internalization (FACS) (MDA-MB231 cells [2])
VKKKKIKAEIKIGFWSRLINRLLEI (Synthetic construct Seq_29 fused to seq_8) [peptide 14],majority of FITC labelled cells is detected,slightly higher fluorescence intensity,strong level of apoptosis,important decrease in PP1 detected,slightly higher fluorescence intensity,majority of FITC labelled cells is detected,higher
"VKKKKIKAEIKI (Synthetic construct vectorization (or carrier) peptide disclosed in WO/2016/156536) [shuttle, optimized cell penetrating peptide used alone as control, reference compound]",–,–,do not show apoptosis,PP1 is detected; also recorded: no difference,–,–,–
VKKKKIKAEIKIPMGFWSRLINRLLEISPY (Synthetic construct Seq_29 fused to seq_7) [peptide 13],majority of FITC labelled cells is detected,–,strong level of apoptosis,low detected; also recorded: important decrease in PP1 detected,–,majority of FITC labelled cells is detected,–
